Laboratory results reported in patent US20070037202A1, “Potentiation of cancer therapies by ZNF217 inhibition” (Regents of the University of California, priority 2002, published 2007).

What was measured:
[1] = tested on: HBL100 cells transfected with ZNF217-EGFP; experiment: Apoptosis assay, annexin V staining; type: cell-based, human; conditions: for annexin staining: ZNF217-EGFP transfected HBL100
Description: (§1) 1.5×10^5 of Hela cells, ZNF217-GFP transfected HeLa cells, HBL100 cells and ZNF217-GFP transfected HBL100 cells were set up in six well plates and cultured as described above. One the second day, the cells were treated with 100 ng/ml doxirubicin for 16 hours. The cell culture supernatants and cells were collected and washed twice with PBS, resuspended in 100 μl of binding buffer (10 mM HEPS, 140 mM NaCl and 2.5 mM CaCl2, pH 7.4). 5 μl of Annexin V antibody (Alexa Fluor 633 from Molecular Probes) was added and the cells were incubated at room temperature for 15 minutes. After the incubation, 400 μl of binding buffer were added and cell samples were analyzed by flow cytometry. A 633-nm wavelength laser was used to measure the apoptotic cell population. For imaging 1.5×10^4 cells were seeded in 4 well cover glass slides (Fisher). Doxorubicin treating cells 16 hours later, the cells were washed with PBS twice and 200 μl of binding buffer were added, staining process was as same as above and in the meantime, 0.5 μM of DAPI were added to satin the cell nucleus. After staining, the cells were washed twice again with PBS, 400 μl of Binding buffer were added. The apoptotic cells were imaged in Seize con-focal image system.
ZNF217 silencing RNA (siRNA) constructs were introduced into HBL100 cells transfected with znf217 and the cells were subsequently treated with Doxorubicin.
The siRNA Dicer Generation kit from Gene Therapy System was used to generate a series of siRNAs. Approximately 30 different 22 bp siRNA sequences were generated, using the following primers: […]

HBL100 cells = experiment: Apoptosis assay, annexin V staining; type: cell-based, human; conditions: for annexin staining: HBL100
Description: as §1

[2] = tested on: 184 HMEC and ZNF217 immortalized HMEC; experiment: Doxorubicin induced cell death in ZNF217 transduced versus parental HMEC; type: cell-based; conditions: 100 ng/ml doxorubicin; p=0.0146
Source text: In order to determine if ZNF217 could confer resistance to doxorubicin on primary mammary epithelial cells, the sensitivity of HMECs which had been previously immortalized by a ZNF217-HA expression construct (Nonet, G. H. et al., 2001, supra) were compared to parental 184 HMECs with finite life span. […] Thus, as well as promoting HMEC immortalization, ZNF217 expression protects HMEC against doxorubicin-induced apoptosis.

[3] = tested on: MCF7, 600MPE and HBL100 breast cancer cell lines; experiment: Sensitivity of breast cancer cell lines to doxorubicin (cell death)
[4] = increasing concentrations, in combination with doxorubicin
[5] = not also treated with doxorubicin

Question: For `CN1N=C(N)c2cn([C@@H]3O[C@H](COP(=O)(O)O)[C@@H](O)[C@H]3O)c3ncnc1c23` [triciribine phosphate], which cell death ([1]; HBL100 transfected with ZNF217-encoding constructs (FIG. 12), increasing concentrations, in combination with Doxorubicon) is on record?
Answer: increased cell death

Question: And the annexin staining [1, 4]?
Answer: increased annexin staining

Question: What about the annexin staining [1, 5] of the same compound?
Answer: did not display significant staining

Question: And the annexin staining (HBL100 cells; [4])?
Answer: increased annexin staining

Question: What about the annexin staining (HBL100 cells; [5]) of the same compound?
Answer: did not display significant staining

Question: And the cell death (HBL100 cells; HBL100 not transfected (FIG. 11), increasing concentrations, in combination with Doxorubicon)?
Answer: increased cell death

Question: Which results are given for `COc1cccc2c1C(=O)c1c(O)c3c(c(O)c1C2=O)C[C@@](O)(C(=O)CO)C[C@@H]3O[C@H]1C[C@H](N)[C@H](O)[C@H](C)O1` [doxorubicin]?
Answer: less cell death in ZNF217 transduced cells than in control non-transduced 184 HMEC [2]: 2.5 fold; cell death upon exposure to doxorubicin ([3]; HBL100 compared with MCF7 and 600MPE): higher levels of cell death; resistance to doxorubicin of cell lines with high relative ZNF217 expression versus HBL100 ([3]; MCF7 and 600MPE versus HBL100, all wild type TP53): three to five-fold more resistant; cells stained with annexin ([1]; ZNF217 transfected HBL100, doxorubicin treatment): Less than 40%; cells stained with annexin (HBL100 cells; control HBL100 cells, doxorubicin treatment): About 80%
